Experimental findings from patent US8871753B2, “Macrocyclic compounds and their use as kinase inhibitors” (Incyte Corporation, priority 2008, dated 2014) are described below.

Molecules are shown by their SMILES. Structures can show the parent of a compound that is named as a salt. Where two headings read alike, the source gives them in different places. A value given as a limit tells only on which side of the number the result lay.

Common to all, as to assay type: biochemical
Assay [1] deals with T1, human JAK2 (a.a. 828-1132) (Homo sapiens, UniProt O60674).
T1 construct: JAK2 (a.a. 828-1132); His tag (N); made in house; host or cells: insect cells (baculovirus)
As to the kind of experiment: In vitro JAK kinase assay (HTRF, phosphorylation of a biotinylated peptide), JAK2. The essentials: (§1)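 Phosphorylation of a biotinylated peptide by the JAK kinase domain, detected by HTRF with Eu-Py20 and SA-APC. ATP was 90 μM for JAK1, 30 μM for JAK2 and 3 μM for JAK3. Reactions ran 1 h at room temperature and were stopped with EDTA, followed by 40 min antibody binding.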
A general note: Time-resolved FRET reads energy transfer from a long-lived donor to a nearby acceptor.

In assay [2] the target is T2, Recombinant Human Anaplastic Lymphoma Kinase (Homo sapiens, UniProt Q9UM73).
T2 construct: purchased Invitrogen, Carlsbad, Calif
Put plainly: ALK HTRF kinase assay. The essentials:
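Biotinylated peptide substrate, recombinant human ALK; detection via europium-chelate antibody to phosphotyrosine paired with streptavidin-APC. Potency expressed as IC50 from four-parameter curve fitting.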

In another assay the target is TYK2 (Homo sapiens, UniProt P29597). Put plainly: TYK2 kinase inhibition (Table A1).
Assay [3] has as its target T3, human JAK3 (a.a. 781-1124) (Homo sapiens, UniProt P52333).
T3 construct: JAK3 (a.a. 781-1124); His tag (N); made in house; host or cells: insect cells (baculovirus)
As to the kind of experiment: In vitro JAK kinase assay (HTRF, phosphorylation of a biotinylated peptide), JAK3. Summed up:
as §1

For assay [4], the target named is T4, human JAK1 (a.a. 837-1142) (Homo sapiens, UniProt P23458).
T4 construct: human JAK1 (a.a. 837-1142); His tag (N); made in house; host or cells: insect cells (baculovirus)
Put plainly: In vitro JAK kinase assay (HTRF, phosphorylation of a biotinylated peptide), JAK1. The note with it: read-out: JAK1 IC50. Summed up: as §1

Setting [5] is: compound at a concentration of 500 nM or 1 mM (not specified), cells shown as percentage.
The mark [6] stands for this setting: method AA1 (30 μM ATP) or AA2 (1000 μM ATP), not stated per value.
The mark [7] stands for this setting: compound at 500 nM or 1 mM, 90 μM ATP.
[8] abbreviates: method AA1 (3 μM ATP) or AA2 (1000 μM ATP), not stated per value.
Where [9] appears, read: method AA1 (90 μM ATP) or AA2 (1000 μM ATP), not stated per value.

T4 sequence (P23458 849-1154): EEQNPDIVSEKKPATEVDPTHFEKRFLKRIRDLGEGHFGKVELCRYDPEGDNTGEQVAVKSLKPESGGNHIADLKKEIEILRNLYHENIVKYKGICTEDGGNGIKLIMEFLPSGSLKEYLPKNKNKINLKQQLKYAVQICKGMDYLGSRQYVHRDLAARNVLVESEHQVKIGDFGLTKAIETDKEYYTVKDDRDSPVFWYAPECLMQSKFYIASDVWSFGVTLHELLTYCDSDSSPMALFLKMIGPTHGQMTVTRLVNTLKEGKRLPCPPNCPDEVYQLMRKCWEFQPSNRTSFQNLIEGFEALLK
T1 sequence (O60674 828-1132): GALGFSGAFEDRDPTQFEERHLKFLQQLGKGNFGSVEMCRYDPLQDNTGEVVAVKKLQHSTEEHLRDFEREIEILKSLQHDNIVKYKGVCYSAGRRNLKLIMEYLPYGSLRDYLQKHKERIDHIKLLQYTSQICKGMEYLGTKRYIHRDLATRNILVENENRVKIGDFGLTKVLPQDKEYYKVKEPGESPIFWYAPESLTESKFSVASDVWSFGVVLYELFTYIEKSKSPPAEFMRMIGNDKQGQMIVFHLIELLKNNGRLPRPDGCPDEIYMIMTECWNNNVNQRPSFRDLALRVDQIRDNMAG
T3 sequence (P52333 781-1124): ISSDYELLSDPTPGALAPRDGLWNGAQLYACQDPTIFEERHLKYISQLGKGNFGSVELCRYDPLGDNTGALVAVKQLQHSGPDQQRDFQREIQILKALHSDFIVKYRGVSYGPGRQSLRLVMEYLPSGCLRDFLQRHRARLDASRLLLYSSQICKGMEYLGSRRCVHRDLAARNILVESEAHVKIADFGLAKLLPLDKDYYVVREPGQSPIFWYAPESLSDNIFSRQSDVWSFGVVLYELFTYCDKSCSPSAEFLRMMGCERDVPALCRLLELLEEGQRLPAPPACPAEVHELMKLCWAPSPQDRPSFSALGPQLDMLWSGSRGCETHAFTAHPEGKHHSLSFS
T2 sequence (Q9UM73 19-1620): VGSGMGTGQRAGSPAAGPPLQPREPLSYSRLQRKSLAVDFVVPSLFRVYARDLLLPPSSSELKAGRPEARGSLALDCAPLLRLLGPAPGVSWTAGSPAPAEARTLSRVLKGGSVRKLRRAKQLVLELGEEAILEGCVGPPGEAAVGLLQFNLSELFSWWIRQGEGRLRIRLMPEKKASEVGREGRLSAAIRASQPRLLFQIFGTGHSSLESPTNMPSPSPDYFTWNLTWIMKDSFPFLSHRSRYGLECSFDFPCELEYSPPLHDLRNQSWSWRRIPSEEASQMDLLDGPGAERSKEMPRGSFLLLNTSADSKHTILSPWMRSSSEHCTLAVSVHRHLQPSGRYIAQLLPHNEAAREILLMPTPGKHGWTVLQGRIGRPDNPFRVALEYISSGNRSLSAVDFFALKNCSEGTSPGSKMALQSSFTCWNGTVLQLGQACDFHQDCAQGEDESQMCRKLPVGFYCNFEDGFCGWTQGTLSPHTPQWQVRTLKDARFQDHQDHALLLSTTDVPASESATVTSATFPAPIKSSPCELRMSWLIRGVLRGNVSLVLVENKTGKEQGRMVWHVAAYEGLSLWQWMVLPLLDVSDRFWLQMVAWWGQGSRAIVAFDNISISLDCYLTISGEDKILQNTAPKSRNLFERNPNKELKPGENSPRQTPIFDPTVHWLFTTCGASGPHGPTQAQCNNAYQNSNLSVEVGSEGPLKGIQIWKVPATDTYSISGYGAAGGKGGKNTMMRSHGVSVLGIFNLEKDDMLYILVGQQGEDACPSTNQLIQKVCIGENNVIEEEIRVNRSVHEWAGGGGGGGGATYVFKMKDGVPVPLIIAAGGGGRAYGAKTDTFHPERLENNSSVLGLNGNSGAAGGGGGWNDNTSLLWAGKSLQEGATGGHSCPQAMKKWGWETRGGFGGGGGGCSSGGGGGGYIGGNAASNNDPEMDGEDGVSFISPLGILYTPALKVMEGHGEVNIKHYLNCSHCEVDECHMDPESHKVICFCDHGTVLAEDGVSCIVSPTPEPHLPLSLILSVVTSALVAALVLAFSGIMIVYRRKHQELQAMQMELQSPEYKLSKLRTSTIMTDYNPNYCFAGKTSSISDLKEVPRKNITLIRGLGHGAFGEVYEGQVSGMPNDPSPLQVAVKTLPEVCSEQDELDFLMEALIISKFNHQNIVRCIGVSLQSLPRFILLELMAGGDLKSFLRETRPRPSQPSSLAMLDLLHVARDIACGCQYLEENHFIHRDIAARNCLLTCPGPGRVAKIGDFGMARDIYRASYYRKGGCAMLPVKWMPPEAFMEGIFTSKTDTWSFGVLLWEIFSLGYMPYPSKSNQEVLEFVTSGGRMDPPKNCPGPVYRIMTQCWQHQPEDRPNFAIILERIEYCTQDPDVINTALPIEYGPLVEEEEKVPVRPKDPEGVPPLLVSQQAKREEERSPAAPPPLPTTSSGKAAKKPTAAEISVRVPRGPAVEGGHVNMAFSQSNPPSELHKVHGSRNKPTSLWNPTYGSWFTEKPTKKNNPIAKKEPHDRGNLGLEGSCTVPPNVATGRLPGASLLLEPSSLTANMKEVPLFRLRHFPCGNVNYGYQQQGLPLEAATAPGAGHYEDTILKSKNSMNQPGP
TYK2, sequence (P29597 whole entry): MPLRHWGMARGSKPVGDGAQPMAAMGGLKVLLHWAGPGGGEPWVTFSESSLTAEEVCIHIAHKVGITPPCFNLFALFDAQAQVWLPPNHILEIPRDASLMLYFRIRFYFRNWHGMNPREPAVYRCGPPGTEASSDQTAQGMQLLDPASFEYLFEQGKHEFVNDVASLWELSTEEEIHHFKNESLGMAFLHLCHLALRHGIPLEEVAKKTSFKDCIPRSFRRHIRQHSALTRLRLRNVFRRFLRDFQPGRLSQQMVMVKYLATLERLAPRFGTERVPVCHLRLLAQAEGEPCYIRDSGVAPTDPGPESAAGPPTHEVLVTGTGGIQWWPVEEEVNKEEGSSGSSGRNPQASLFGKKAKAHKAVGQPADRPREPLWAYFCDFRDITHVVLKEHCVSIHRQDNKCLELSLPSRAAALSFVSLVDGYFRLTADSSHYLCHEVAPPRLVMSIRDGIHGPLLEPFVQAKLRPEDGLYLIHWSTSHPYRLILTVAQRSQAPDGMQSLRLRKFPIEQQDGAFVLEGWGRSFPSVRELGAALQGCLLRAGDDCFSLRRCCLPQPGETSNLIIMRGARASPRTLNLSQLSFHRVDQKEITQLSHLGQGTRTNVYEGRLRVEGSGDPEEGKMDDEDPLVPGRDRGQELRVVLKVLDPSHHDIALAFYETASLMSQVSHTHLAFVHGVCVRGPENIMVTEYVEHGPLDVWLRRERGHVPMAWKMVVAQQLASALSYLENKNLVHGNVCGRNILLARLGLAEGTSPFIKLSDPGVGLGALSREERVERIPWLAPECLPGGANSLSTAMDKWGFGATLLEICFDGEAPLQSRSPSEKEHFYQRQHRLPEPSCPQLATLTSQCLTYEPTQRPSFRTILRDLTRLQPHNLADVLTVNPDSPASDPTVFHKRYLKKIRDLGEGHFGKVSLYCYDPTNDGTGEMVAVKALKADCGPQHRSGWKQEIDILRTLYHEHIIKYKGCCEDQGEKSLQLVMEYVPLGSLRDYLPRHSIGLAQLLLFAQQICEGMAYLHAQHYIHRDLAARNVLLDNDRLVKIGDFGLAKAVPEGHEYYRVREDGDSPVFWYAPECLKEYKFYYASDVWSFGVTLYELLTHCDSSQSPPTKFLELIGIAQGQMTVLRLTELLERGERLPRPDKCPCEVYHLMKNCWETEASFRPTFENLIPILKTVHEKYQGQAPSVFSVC

A word on the IC50: it is the concentration at which inhibition is half-maximal. Take `O=S1(=O)NCc2cccc(c2)Nc2nc(ncc2Cl)Nc2cccc1c2` [Example C3, 6-Chloro-16-thia-2,4,8,15,23-pentaazatetracyclo[15.3.1.1(3,7).1(9,13)]tricosa-1(21),3(23),4,6,9(22),10,12,17,19-nonaene 16,16-dioxide]: the IC50 in assay [1] was found to be 37 nM; in assay [2] it was 6600 nM; against TYK2, 91 nM; in assay [3], 115 nM; in assay [4] it was 81 nM.
With `O=C(Nc1ccc2cc1CCc1cccc(c1)Nc1ncc(Cl)c(n1)N2)N[C@H]1CCN(c2ncccn2)C1` [Example B262, N-[6-Chloro-2,4,8,22-tetraazatetracyclo[14.3.1.1(3,7).1(9,13)]docosa-1(20),3(22),4,6,9(21),10,12,16,18-nonaen-12-yl]-N′-[(3S)-1-pyrimidin-2-ylpyrrolidin-3-yl]urea bis(trifluoroacetate)], the IC50 in assay [1] (Table B1) is 4.7 nM; at TYK2 (Table B1), 8.7 nM; in assay [3] (Table B1), 38 nM; in assay [4] (Table B1), 2.6 nM. In addition, in assay [2] (setting [5]), the “ALK % of inhibition at a concentration of 500 nM or 1 mM” value (“ALK % of inhibition” below) worked out at 19%.
Turning to `Cc1oncc1S(=O)(=O)N1CCC(CC(=O)Nc2ccc3cc2CCc2cncc(c2)Nc2ncc(Cl)c(n2)N3)CC1` [Example A200, N-[6-Chloro-2,4,8,18,22-pentaazatetracyclo[14.3.1.1(3,7).1(9,13)]docosa-1(20),3(22),4,6,9(21),10,12,16,18-nonaen-12-yl]-2-{1-[(5-methylisoxazol-4-yl)sulfonyl]piperidin-4-yl}acetamide bis(trifluoroacetate)], the IC50 in assay [1] (setting [6]) is 101 nM; at TYK2, over 200 nM; in assay [3] (setting [8]), over 200 nM; in assay [4] (setting [9]), 8.5 nM. Further, the “ALK % of inhibition” value in assay [2] (setting [7]) is 25%.
`O=C(Nc1ccc2cc1CCc1cccc(c1)Nc1ncc(Cl)c(n1)N2)c1cccnc1Cl` [Example B70, 2-Chloro-N-[6-chloro-2,4,8,22-tetraazatetracyclo[14.3.1.1(3,7).1(9,13)]docosa-1(20),3(22),4,6,9(21),10,12,16,18-nonaen-12-yl]nicotinamide bis(trifluoroacetate)]: the IC50 was 0.64 nM in assay [1] (Table B1), 2.5 nM against TYK2 (Table B1), 2.4 nM in assay [3] (Table B1) and 1.5 nM in assay [4] (Table B1). Further, in assay [2] (setting [5]), the “ALK % of inhibition” value is 82%.
For `Clc1cnc2nc1Nc1cccc(c1)SSc1cccc(c1)N2` [Example D12, 6-Chloro-14,15-dithia-2,4,8,22-tetraazatetracyclo[14.3.1.1(3,7).1(9,13)]docosa-1(20),3(22),4,6,9(21),10,12,16,18-nonaene trifluoroacetate], the IC50 was 290 nM in assay [1] (Table D1); over 10000 nM in assay [2] (Table D1, 90 μM ATP); 324 nM against TYK2 (Table D1); 369 nM in assay [3] (Table D1); 178 nM in assay [4] (Table D1).
In the case of `O=S(=O)(Nc1ccc2cc1CCc1cccc(c1)Nc1ncc(Cl)c(n1)N2)c1cccc(Cl)c1` [Example B138, 3-Chloro-N-[6-chloro-2,4,8,22-tetraazatetracyclo[14.3.1.1(3,7).1(9,13)]docosa-1(20),3(22),4,6,9(21),10,12,16,18-nonaen-12-yl]benzenesulfonamide trifluoroacetate], the IC50 turned out to be 0.1 nM in assay [1] (Table B1); 100 nM in assay [2] (Table B1, cells without percent sign); 0.35 nM on TYK2 (Table B1); 0.33 nM in assay [3] (Table B1); 0.25 nM in assay [4] (Table B1).
Consider `COc1cccc(S(=O)(=O)Nc2ccc3cc2CCc2cccc(c2)Nc2ncc(Cl)c(n2)N3)c1` [Example B157, N-[6-Chloro-2,4,8,22-tetraazatetracyclo[14.3.1.1(3,7).1(9,13)]docosa-1(20), 3(22),4,6,9(21),10,12,16,18-nonaen-12-yl]-3-methoxybenzenesulfonamide trifluoroacetate], for which the IC50 is 0.15 nM in assay [1] (Table B1), 0.62 nM against TYK2 (Table B1), 0.3 nM in assay [3] (Table B1) and 0.51 nM in assay [4] (Table B1). The “ALK % of inhibition” value in assay [2] (setting [5]) came out at 87%.
As for `Cc1cc(C(=O)N2CC[C@@H](C(=O)Nc3ccc4cc3CCc3cccc(c3)Nc3ncc(Cl)c(n3)N4)C2)no1` [Example A122, (3R)—N-[6-Chloro-2,4,8,22-tetraazatetracyclo[14.3.1.1(3,7).1(9,13)]docosa-1(20),3(22),4,6,9(21),10,12,16,18-nonaen-12-yl]-1-[(5-methylisoxazol-3-yl)carbonyl]pyrrolidine-4-carboxamide trifluoroacetate], the IC50 was 3.9 nM in assay [1] (setting [6]), 17 nM at TYK2, 7.3 nM in assay [3] (setting [8]) and 7.2 nM in assay [4] (setting [9]). Further, the “ALK % of inhibition” value in assay [2] (setting [7]) was found to be 52%.
Take `Clc1cnc2nc1Nc1cccc(c1)OCCOc1cccc(c1)N2` [Example D10, 6-Chloro-14,17-dioxa-2,4,8,24-tetraazatetracyclo[16.3.1.1(3,7).1(9,13)]tetracosa-1(22),3(24),4,6,9(23),10,12,18,20-nonaene trifluoroacetate]: the IC50 in assay [1] (Table D1) is 2.4 nM; in assay [2] (Table D1, 90 μM ATP), 791 nM; at TYK2 (Table D1), 8.1 nM; in assay [3] (Table D1), 10 nM; in assay [4] (Table D1), 8.2 nM.
Regarding `Cc1noc(C)c1S(=O)(=O)N1CCC(CC(=O)Nc2ccc3cc2CCc2cncc(c2)Nc2ncc(Cl)c(n2)N3)CC1` [Example A231, N-[6-chloro-2,4,8,18,22-pentaazatetracyclo[14.3.1.1(3,7).1(9,13)]docosa-1(20),3(22),4,6,9(21),10,12,16,18-nonaen-12-yl]-2-{1-[(3,5-dimethylisoxazol-4-yl)sulfonyl]piperidin-4-yl}acetamide bis(trifluoroacetate)], the IC50 is 85 nM in assay [1] (setting [6]), 98 nM at TYK2, over 400 nM in assay [3] (setting [8]) and 9.7 nM in assay [4] (setting [9]). For the same compound, the “ALK % of inhibition” value in assay [2] (setting [7]) was determined as 46%.
The corresponding values for `O=C(CC1CCN(S(=O)(=O)c2ccccc2Cl)CC1)Nc1ccc2cc1CCc1cncc(c1)Nc1ncc(Cl)c(n1)N2` [Example A223, N-[6-Chloro-2,4,8,18,22-pentaazatetracyclo[14.3.1.1(3,7).1(9,13)]docosa-1(20),3(22),4,6,9(21),10,12,16,18-nonaen-12-yl]-2-{1-[(2-chlorophenyl)sulfonyl]piperidin-4-yl}acetamide bis(trifluoroacetate)] are 90 nM, over 400 nM, over 400 nM, 5 nM and 41%.
The matching figures for `CC(C)S(=O)(=O)N1CCC(CC(=O)Nc2ccc3cc2CCc2cncc(c2)Nc2ncc(Cl)c(n2)N3)CC1` [Example A97, N-[6-Chloro-2,4,8,18,22-pentaazatetracyclo[14.3.1.1(3,7).1(9,13)]docosa-1(20),3(22),4,6,9(21),10,12,16,18-nonaen-12-yl]-2-[1-(isopropylsulfonyl)piperidin-4-yl]acetamide bis(trifluoroacetate)]: 7.5 nM, 11 nM, 34 nM, 3.9 nM and 31%.
